# From the kinase profiling compilation of Christmann-Franck et al. (2016)
# Legend:
# Assay in all cases: KINOMEscan competition binding
# [1] = target: IGF1R (human) (UniProt P08069); settings: compound 10.0 µM
# [2] = system: EGFR (human), P00533 [A750P; 747-749 del]; settings: compound 10.0 µM
# [3] = target: MAP3K4 (human) (UniProt Q9Y6R4); settings: compound 10.0 µM
# [4] = target: PAK3 (human) (UniProt O75914); settings: compound 10.0 µM
# [5] = target: PRKX (human) (UniProt P51817); settings: compound 10.0 µM
# [6] = target: MAP3K13 (human) (UniProt O43283); settings: compound 10.0 µM
# [7] = system: EGFR (human), P00533 [747-751 del / S ins]; settings: compound 10.0 µM
# [8] = target: LATS1 (human) (UniProt O95835); settings: compound 10.0 µM
# [9] = target: STK39 (human) (UniProt Q9UEW8); settings: compound 10.0 µM
# [10] = target: STK33 (human) (UniProt Q9BYT3); settings: compound 10.0 µM
# [11] = target: CDK16 (human) (UniProt Q00536); settings: compound 10.0 µM
# [12] = target: ACVR1B (human) (UniProt P36896); settings: compound 10.0 µM
# [13] = target: LATS2 (human) (UniProt Q9NRM7); settings: compound 10.0 µM
# [14] = target: DAPK3 (human) (UniProt O43293); settings: compound 10.0 µM
# [15] = target: PRKD1 (human) (UniProt Q15139); settings: compound 10.0 µM
# [16] = target: CDK17 (human) (UniProt Q00537); settings: compound 10.0 µM
# [17] = system: MET (human), P08581 [M1250T]; settings: compound 10.0 µM
# [18] = target: CSNK1D (human) (UniProt P48730); settings: compound 10.0 µM
# [19] = target: DYRK2 (human) (UniProt Q92630); settings: compound 10.0 µM
# [20] = system: KIT (human), P10721 [V559D]; settings: compound 10.0 µM
# [21] = system: RET (human), P07949 [M918T]; settings: compound 10.0 µM
# [22] = target: CHUK (human) (UniProt O15111); settings: compound 10.0 µM
# [23] = target: DCLK2 (human) (UniProt Q8N568)
# [24] = target: TLK2 (human) (UniProt Q86UE8); settings: compound 10.0 µM
# [25] = target: MAPK6 (human) (UniProt Q16659); settings: compound 10.0 µM
# [26] = target: TNK2 (human) (UniProt Q07912); settings: compound 10.0 µM
# [27] = target: TNNI3K (human) (UniProt Q59H18); settings: compound 10.0 µM
# [28] = target: MAP2K5 (human) (UniProt Q13163); settings: compound 10.0 µM
# [29] = target: PKMYT1 (human) (UniProt Q99640); settings: compound 10.0 µM
# [30] = system: RET (human), P07949 [V804M]; settings: compound 10.0 µM
# [31] = target: MARK2 (human) (UniProt Q7KZI7); settings: compound 10.0 µM
# [32] = target: AURKB (human) (UniProt Q96GD4); settings: compound 10.0 µM
# [33] = target: CDKL1 (human) (UniProt Q00532); settings: compound 10.0 µM
# [34] = target: RPS6KA4 KD1 (human) (UniProt O75676); settings: compound 10.0 µM
# [35] = target: DAPK1 (human) (UniProt P53355); settings: compound 10.0 µM
# [36] = target: BMPR1B (human) (UniProt O00238); settings: compound 10.0 µM
# [37] = system: KIT (human), P10721 [L576P]; settings: compound 10.0 µM
# [38] = system: PIK3CA (human), P42336 [I800L]; settings: compound 10.0 µM
# [39] = target: TAOK2 (human) (UniProt Q9UL54); settings: compound 10.0 µM
# [40] = target: LYN (human) (UniProt P07948); settings: compound 10.0 µM
# [41] = target: CIT (human) (UniProt O14578); settings: compound 10.0 µM
# Chain of DCLK2 (human) (Q8N568 whole entry, looked up): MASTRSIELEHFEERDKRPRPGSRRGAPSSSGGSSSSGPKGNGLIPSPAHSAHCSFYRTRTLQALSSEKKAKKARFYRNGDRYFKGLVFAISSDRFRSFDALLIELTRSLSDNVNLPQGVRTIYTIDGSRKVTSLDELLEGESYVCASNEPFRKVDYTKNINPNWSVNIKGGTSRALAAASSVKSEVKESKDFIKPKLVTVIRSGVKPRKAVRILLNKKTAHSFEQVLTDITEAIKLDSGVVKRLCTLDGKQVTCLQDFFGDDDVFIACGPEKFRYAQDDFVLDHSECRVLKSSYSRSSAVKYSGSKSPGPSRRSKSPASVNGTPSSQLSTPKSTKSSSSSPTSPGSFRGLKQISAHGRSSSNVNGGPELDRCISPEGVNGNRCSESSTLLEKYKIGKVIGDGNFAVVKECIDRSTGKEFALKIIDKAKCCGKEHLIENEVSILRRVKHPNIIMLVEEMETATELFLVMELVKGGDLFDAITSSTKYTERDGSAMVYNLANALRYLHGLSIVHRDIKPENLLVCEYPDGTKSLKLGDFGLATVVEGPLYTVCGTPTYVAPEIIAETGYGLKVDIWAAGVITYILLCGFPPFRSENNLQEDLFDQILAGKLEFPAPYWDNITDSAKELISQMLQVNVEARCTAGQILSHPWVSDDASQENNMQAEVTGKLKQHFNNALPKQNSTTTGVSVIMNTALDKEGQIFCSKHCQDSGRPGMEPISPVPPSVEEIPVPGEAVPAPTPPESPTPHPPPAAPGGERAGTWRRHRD
# Chain of CHUK (human) (O15111 whole entry, looked up): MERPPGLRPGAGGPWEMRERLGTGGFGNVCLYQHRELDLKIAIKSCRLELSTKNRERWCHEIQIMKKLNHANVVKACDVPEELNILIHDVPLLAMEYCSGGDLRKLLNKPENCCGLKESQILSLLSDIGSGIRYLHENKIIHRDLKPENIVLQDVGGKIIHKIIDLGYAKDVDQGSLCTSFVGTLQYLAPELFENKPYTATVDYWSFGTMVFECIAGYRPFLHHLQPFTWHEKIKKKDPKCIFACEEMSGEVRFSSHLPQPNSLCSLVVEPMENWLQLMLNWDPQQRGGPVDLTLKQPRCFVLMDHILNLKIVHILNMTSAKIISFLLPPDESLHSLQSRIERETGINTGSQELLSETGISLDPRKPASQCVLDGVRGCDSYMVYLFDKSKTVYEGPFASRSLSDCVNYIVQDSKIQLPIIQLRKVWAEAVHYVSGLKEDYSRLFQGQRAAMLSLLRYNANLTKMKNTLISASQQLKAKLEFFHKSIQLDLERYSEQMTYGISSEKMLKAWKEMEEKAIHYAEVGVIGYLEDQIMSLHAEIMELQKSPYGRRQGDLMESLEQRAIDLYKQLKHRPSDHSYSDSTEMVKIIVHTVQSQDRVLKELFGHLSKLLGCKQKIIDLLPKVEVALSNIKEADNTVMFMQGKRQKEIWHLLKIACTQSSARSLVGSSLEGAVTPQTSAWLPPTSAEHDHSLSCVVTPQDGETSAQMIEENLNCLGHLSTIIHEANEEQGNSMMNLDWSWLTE
# Chain of RPS6KA4 KD1 (human) (O75676 whole entry, looked up): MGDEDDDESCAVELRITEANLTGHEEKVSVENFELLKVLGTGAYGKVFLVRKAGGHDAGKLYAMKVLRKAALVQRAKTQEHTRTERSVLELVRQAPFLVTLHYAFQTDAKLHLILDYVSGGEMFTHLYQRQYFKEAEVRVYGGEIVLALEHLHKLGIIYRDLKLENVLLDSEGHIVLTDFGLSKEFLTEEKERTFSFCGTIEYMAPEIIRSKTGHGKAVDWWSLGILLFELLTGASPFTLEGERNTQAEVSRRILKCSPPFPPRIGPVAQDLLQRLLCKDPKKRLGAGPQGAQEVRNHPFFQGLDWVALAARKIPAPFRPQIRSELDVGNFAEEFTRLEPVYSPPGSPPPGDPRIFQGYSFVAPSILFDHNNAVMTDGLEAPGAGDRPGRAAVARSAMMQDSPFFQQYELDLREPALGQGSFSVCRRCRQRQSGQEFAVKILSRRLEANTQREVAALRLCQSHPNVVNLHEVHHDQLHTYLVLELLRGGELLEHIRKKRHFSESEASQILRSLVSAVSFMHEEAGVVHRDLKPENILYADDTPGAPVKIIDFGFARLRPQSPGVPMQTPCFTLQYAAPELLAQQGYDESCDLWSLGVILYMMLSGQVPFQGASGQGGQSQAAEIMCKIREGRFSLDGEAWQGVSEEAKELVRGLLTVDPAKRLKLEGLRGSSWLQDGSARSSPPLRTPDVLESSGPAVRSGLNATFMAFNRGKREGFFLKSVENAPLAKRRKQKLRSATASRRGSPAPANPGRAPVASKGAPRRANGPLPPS
# Chain of PIK3CA (human), P42336 [I800L] (P42336 whole entry I800L, looked up): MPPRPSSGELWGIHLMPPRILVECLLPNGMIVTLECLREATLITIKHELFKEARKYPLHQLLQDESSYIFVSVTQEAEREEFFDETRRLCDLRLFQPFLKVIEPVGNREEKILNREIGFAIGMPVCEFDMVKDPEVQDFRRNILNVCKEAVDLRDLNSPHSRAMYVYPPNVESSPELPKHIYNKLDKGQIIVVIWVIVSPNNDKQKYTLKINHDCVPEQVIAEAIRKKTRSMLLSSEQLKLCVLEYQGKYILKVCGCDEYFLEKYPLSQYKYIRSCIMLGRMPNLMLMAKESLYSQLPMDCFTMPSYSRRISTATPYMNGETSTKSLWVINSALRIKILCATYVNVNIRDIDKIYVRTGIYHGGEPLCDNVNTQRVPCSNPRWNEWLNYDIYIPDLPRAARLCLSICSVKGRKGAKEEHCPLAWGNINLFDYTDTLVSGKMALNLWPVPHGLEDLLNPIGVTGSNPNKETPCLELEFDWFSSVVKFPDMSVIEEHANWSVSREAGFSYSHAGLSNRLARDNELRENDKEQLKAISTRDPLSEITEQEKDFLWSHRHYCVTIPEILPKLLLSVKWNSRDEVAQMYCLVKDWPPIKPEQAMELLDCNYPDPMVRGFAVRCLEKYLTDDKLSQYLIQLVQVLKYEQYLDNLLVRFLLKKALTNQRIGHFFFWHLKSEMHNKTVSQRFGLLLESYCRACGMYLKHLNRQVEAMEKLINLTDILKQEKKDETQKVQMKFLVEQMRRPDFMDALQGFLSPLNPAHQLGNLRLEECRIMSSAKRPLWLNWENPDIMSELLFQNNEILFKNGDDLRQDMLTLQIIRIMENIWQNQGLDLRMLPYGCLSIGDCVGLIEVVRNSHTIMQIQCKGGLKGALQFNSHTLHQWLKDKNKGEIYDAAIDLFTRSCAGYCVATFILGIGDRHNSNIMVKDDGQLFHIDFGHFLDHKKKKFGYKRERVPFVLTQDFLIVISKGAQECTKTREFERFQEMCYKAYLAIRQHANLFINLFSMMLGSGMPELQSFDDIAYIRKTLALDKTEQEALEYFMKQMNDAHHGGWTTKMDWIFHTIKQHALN
# Chain of PRKX (human) (P51817 whole entry, looked up): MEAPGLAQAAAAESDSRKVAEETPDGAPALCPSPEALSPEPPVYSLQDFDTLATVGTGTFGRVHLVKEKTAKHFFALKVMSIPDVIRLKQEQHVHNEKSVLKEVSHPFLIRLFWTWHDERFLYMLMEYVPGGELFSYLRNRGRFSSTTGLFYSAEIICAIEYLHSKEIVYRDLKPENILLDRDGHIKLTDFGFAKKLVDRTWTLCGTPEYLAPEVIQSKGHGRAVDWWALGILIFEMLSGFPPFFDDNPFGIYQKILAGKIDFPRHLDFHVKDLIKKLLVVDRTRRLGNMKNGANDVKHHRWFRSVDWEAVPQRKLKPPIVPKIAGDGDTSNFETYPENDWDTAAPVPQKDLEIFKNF
# Chain of PRKD1 (human) (Q15139 whole entry, looked up): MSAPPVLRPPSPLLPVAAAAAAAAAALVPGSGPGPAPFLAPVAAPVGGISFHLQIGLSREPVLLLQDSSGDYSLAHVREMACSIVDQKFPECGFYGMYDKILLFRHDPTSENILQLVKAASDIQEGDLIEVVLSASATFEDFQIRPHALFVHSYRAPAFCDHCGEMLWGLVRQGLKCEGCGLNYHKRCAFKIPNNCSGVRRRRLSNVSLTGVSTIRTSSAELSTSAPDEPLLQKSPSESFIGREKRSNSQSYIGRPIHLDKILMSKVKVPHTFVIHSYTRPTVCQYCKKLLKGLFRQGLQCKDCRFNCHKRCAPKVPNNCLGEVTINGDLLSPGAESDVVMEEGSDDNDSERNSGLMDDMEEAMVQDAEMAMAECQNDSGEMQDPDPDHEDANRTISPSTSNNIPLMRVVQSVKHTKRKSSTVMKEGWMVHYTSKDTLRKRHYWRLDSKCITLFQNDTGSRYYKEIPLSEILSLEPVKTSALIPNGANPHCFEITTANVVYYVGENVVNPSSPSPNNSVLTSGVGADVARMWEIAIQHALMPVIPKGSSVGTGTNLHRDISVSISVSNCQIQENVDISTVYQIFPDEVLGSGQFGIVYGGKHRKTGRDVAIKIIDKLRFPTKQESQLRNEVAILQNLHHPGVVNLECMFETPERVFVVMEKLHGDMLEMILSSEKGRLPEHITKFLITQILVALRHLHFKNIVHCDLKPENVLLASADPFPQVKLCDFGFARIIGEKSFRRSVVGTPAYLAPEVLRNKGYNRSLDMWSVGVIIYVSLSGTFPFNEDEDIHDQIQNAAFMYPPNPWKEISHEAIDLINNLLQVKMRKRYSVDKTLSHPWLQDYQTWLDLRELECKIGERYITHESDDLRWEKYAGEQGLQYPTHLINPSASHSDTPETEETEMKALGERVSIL
# Chain of MAP2K5 (human) (Q13163 whole entry, looked up): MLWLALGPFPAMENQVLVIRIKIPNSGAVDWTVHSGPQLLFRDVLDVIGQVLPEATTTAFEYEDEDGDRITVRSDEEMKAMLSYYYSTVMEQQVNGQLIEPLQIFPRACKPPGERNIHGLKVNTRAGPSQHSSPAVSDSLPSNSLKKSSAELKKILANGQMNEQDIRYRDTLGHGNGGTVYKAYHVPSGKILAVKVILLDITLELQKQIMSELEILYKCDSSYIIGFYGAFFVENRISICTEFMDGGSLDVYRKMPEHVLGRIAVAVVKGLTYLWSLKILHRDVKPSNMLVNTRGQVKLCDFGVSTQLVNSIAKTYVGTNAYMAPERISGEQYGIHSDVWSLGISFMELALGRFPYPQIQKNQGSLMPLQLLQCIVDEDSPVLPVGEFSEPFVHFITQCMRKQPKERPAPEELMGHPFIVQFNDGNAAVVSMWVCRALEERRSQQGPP
smiles,measurement,setting,value
COc1cc(C(=O)N2CCC(N3CCN(C)CC3)CC2)ccc1Nc1ncc2c(n1)N(C)c1ccccc1C(=O)N2C,residual activity,[1],96%
same,"kinase still bound, per cent of control",[2],78%
same,"kinase still bound, per cent of control",[3],100%
same,"kinase still bound, per cent of control",[4],83%
same,"kinase still bound, per cent of control",[5],99%
same,"kinase still bound, per cent of control",[6],100%
same,"kinase still bound, per cent of control",[7],100%
same,"kinase still bound, per cent of control",[8],100%
same,residual activity,[9],39%
same,"kinase still bound, per cent of control",[10],10%
same,residual activity,[11],96%
same,"kinase still bound, per cent of control",[12],100%
same,"kinase still bound, per cent of control",[13],95%
same,"kinase still bound, per cent of control",[14],67%
same,"kinase still bound, per cent of control",[15],28%
same,residual activity,[16],83%
same,"kinase still bound, per cent of control",[17],96%
same,residual activity,[18],81%
same,"kinase still bound, per cent of control",[19],76%
same,"kinase still bound, per cent of control",[20],100%
same,"kinase still bound, per cent of control",[21],100%
same,"kinase still bound, per cent of control",[22],100%
same,Kd,[23],16 nM
same,"kinase still bound, per cent of control",[23]; compound 10.0 µM,0.45%
same,"kinase still bound, per cent of control",[24],99%
same,"kinase still bound, per cent of control",[25],100%
same,"kinase still bound, per cent of control",[26],18%
same,"kinase still bound, per cent of control",[27],100%
same,"kinase still bound, per cent of control",[28],85%
same,"kinase still bound, per cent of control",[29],80%
same,"kinase still bound, per cent of control",[30],80%
same,"kinase still bound, per cent of control",[31],100%
same,"kinase still bound, per cent of control",[32],38%
same,residual activity,[33],78%
same,"kinase still bound, per cent of control",[34],100%
same,"kinase still bound, per cent of control",[35],73%
same,"kinase still bound, per cent of control",[36],76%
same,"kinase still bound, per cent of control",[37],100%
same,"kinase still bound, per cent of control",[38],38%
same,"kinase still bound, per cent of control",[39],65%
same,"kinase still bound, per cent of control",[40],100%
same,"kinase still bound, per cent of control",[41],99%
